The target in assay [1] is T1, PA2652-LBD (Pseudomonas aeruginosa, UniProt Q9I0I6).
T1 construct: The DNA fragment encoding the LBD of PA2652 (Lys^34–Thr^205) was amplified; His-tag (vector-encoded by pET28b(+) via NdeI site); made in house; host or cells: Escherichia coli BL21 (DE3)
In kind it is binding, Pseudomonas aeruginosa PAO1. Conditions: for Tm Shift: Biolog arrays PM1, PM2A, PM3b, PM4a, PM5, relative to ligand-free protein Tm 45.5 °C; for Tm increases: DSF screening as described in text, 2 °C threshold for significant hits. An excerpt: To identify ligands that may bind to the LBD of PA2652, we conducted Differential Scanning Fluorimetry (DSF) based high throughput ligand screening assays as described previously[37],[38]. DSF analyses permit the determination of melting temperature (Tm) values, which corresponds to the temperature at which half the protein is in its native conformation whereas the remaining half has undergone thermal unfolding. Since ligand binding typically enhances the thermal stability of proteins, increases in the Tm in the presence of ligands may be indicative of specific binding. We screened 450 different compounds available in five different ligand arrays from Biolog (Supplementary Fig. S3). The screened collection included different carbon and nitrogen sources, phosphorous and sulfurous compounds as well as different nutrient supplements.
Thermal shift assays were performed on a MyIQ2 Real-Time PCR instrument (BioRad). Ligands from the different compound arrays (Biolog, Hayward, CA, USA; see Supplementary Fig. S3) were dissolved in 50 μl of MilliQ water, which, according to the manufacturer, corresponds to a concentration of 10–20 mM. Screening was performed using 96 wells plates. Each well contained 20 μM of protein dialyzed into TNG buffer (20 mM Tris/HCl, 150 mM NaCl, 10% (v/v) glycerol, pH 6.7), 2.5 μl of the resuspended compounds and SYPRO Orange (Life Technologies) at 5× concentration. In a single well (ligand free protein) the compound was substituted by water. Samples were heated from 23 °C to 85 °C at a scan rate of 1 °C/min. The protein unfolding curves were obtained by following the changes in SYPRO Orange fluorescence. Melting temperatures were determined using the first derivative values from the raw fluorescence data.

The target of assay [2] is T1, PA2652-LBD. Kind of assay: biochemical. Conditions: for Binding in ITC: YES/NO. In kind it is binding, Pseudomonas aeruginosa PAO1. As to the method: To unambiguously determine ligand binding, we conducted Isothermal Titration Calorimetry (ITC)[40] binding studies with the purified protein.
Experiments were conducted on a VP-microcalorimeter (Microcal, Amherst, MA, USA) at 20 °C. PA2652-LBD was dialyzed overnight against TNG buffer, adjusted to a concentration of 20–35 μM and placed into the sample cell of the instrument. The protein was titrated by the injection of 9.6–14.4 μl aliquots of 1–20 mM ligand solutions that were prepared in TNG buffer (20 mM Tris/HCl, 150 mM NaCl, 10% (v/v) glycerol, pH 6.8) immediately before use. The mean enthalpies measured from the injection of ligands into buffer were subtracted from raw titration data prior to data analysis with the MicroCal version of ORIGIN. Data were fitted with the “One binding site model”.

Assay [3] deals with Pseudomonas aeruginosa PAO1. In words: Quantitative capillary chemotaxis assay, wild type. In kind it is cell-based. Conditions: for Role of PA2652 ligand (chemoattractant or antagonist): authors' classification from chemotaxis results; for Chemotactic response / Concentration of maximum chemotactic response: wt PAO1; for Chemotactic response: ligands at 10 µM to 100 mM. The protocol: Secondly, we assessed the capacity of the ligands identified to induce chemotaxis. To this end, we carried out quantitative capillary chemotaxis assays using the wt strain and PA2652 ligands at concentrations ranging from 10 µM to 100 mM.
Overnight cultures of P. aeruginosa strains were diluted to an OD660 of 0.05 in MS medium (30 mM Na2HPO4, 20 mM KH2PO4, 25 mM NH4NO3, 1 mM MgSO4) supplemented with 6 mg l^−1 Fe-citrate, trace elements[81] and 15 mM glucose as carbon source, and grown at 37 °C with orbital shaking (200 rpm). At an OD660 of 0.4 ([…]) cultures were centrifuged at 1,700 × g for 5 min and the resulting pellet was washed twice with chemotaxis buffer (50 mM potassium phosphate, […], 0.05% (v/v) glycerol, pH 7.0). Subsequently, the cells were resuspended in the same buffer, adjusted to an OD660 of 0.1 and 230 µl aliquots of the bacterial cultures were placed into 96-well plates. For the quantitative assays, one-microliter capillary tubes (Microcaps, Drummond Scientific, Ref. P1424) were heat-sealed at one end and filled with either the chemotaxis buffer (negative control) or chemotaxis buffer containing the chemoeffectors to test. The capillaries were immersed into the bacterial suspensions at its open end. After 30 min at room temperature, capillaries were removed from the bacterial suspensions, rinsed with sterile water and the content expelled into 1 ml of M9 medium salts. Serial dilutions were plated onto M9 minimal medium (containing the appropriate antibiotics) supplemented with 15 mM glucose as carbon source. The number of colony forming units was determined after overnight incubation. In all cases, data were corrected with the number of cells that swam into buffer containing capillaries.

The subject of assay [4] is Pseudomonas aeruginosa PAO1. In words: Capillary chemotaxis assay in presence of antagonists. In kind it is cell-based. To be noted: for Effect of antagonist on chemotaxis toward L-alanine: 1 mM L-alanine, 20 or 40 mM antagonist; for Effect of antagonist on chemotaxis toward L-malic acid: 1 mM L-malic acid, 10, 20 and 40 mM antagonist in suspension and capillary. The protocol:
To this end we conducted chemotaxis assays toward L-malic acid in the absence or presence of 10, 20 and 40 mM of citraconic and D,L-methylsuccinic acids (that were added to both, the bacterial suspension and the chemoattractant solution). […] To verify whether the presence of antagonists may have a global inhibitory effect on the chemotactic properties of P. aeruginosa we performed assays toward L-alanine, a chemoattractant recognized by the receptors PctA and PctB[15], in the presence antagonists.
To determine the effect of antagonists in the chemotactic properties of PAO1, the assay was performed as previously described with two minor modifications: (i) Capillary tubes were filled with chemotaxis buffer containing 1 mM of the chemoattractants (L-malic acid or L-alanine) and 10–40 mM of the antagonists (methylsuccinic or citraconic acids); (ii) Bacterial cultures were washed with chemotaxis buffer and cells were finally resuspended in the same buffer but containing equimolar concentrations of methylsuccinic/citraconic acids to those present in the capillary tubes.

The test system of assay [5] is Pseudomonas aeruginosa PAO1 (wt and PA2652 mutant). Kind of assay: Growth experiments with ligands as sole carbon source. The format is cell-based. To be noted: M9 minimal medium, 10 mM carbon source. The source says: To evaluate the physiological relevance of the ligands identified, we first addressed the question of whether they could support bacterial growth as sole carbon source. To this end, we conducted growth experiments of the wild type (wt) strain and a mutant defective in PA2652 in minimal medium supplemented with the different ligands as sole carbon sources.
Bacterial strains used in this study are listed in Supplementary Table S3. Pseudomonas aeruginosa PAO1 and its derivative strains were routinely grown at 37 °C in Luria Broth (LB; 5 g yeast extract l^−1, 10 g Bacto tryptone l^−1 and 5 g NaCl l^−1) or M9 medium supplemented with 1 mM MgSO4, 6 mg l^−1 Fe-citrate, trace elements[81] and 15 mM glucose as carbon source. For growth experiments to assess the capacity of PA2652-LBD ligands to support growth a sole C-source, PAO1 cells were pre-cultured overnight in M9 medium supplemented with 10 mM glucose and washed twice with M9 medium salts, prior to the inoculation of M9 medium containing10 mM of the different carbon sources. When necessary, the pH of the medium was adjusted to 7.0 prior to inoculation. Bacterial growth over the time was monitored using Bioscreen Microbiological Growth Analyser (Oy Growth Curves Ab Ltd, Helsinki, Finland). Escherichia coli strains were grown at 37 °C in LB. Escherichia coli DH5α was used as a host for gene cloning. When appropriate, antibiotics were used at the following final concentrations (in µg ml^−1): kanamycin, 25 (E. coli strains) and 100 (Pseudomonas strains); tetracycline, 40.

“Also recorded” adds a separate entry of the source.

T1 sequence (Q9I0I6 34-205): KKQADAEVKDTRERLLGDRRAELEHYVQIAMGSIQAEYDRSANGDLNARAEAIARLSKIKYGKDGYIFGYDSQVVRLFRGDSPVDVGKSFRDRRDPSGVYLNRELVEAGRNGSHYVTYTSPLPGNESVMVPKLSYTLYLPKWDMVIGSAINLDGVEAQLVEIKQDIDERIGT

For `O=C(O)CCC(=O)O` [Succinic acid], the “Tm Shift” value in assay [1] is recorded as “No significant shift”. Also, the entries for the “Binding to PA2652-LBD in ITC (in words)” value in assay [2] and in assay [2] (listed as succinic acid) were “No binding” and “absence of binding”, respectively.
As for `O=C(O)/C=C/C(=O)O` [Fumaric acid], in assay [1], the “Tm Shift” value is reported as “No significant shift”. For the same molecule, the results for the “Binding to PA2652-LBD in ITC (in words)” value in assay [2] and in assay [2] (listed as fumaric acid) were “No binding” and “absence of binding”, respectively.
Consider `C[C@@H](O)[C@H](N)C(=O)O` [L-threonine], for which the “Tm Shift” value in assay [1] is reported as “No significant shift”. Also, in assay [2], the “Binding to PA2652-LBD in ITC (in words)” value is given as “No binding”.
With `O=C(O)CC(=O)C(=O)O` [Oxaloacetic acid], the “Tm Shift” value in assay [1] is on record as “No significant shift”. Besides, the “Binding to PA2652-LBD in ITC (in words)” value in assay [2] was “No binding”; in assay [2] (listed as oxalacetic acid), “absence of binding”.
Consider `C[C@@H](CC(=O)O)C(=O)O` [L-methylsuccinic acid], for which, in assay [3], the “Role of PA2652 ligand (chemoattractant or antagonist)” value (from here on “Role of PA2652 ligand”) was “antagonists”.
On to `CC(CC(=O)O)C(=O)O` (racemic) [D,L-methylsuccinic acid], for which, in assay [4], the “Effect of antagonist on chemotaxis toward L-alanine” value is “did not significantly alter the chemotaxis” and the “Effect of antagonist on chemotaxis toward L-malic acid” value was “reduced the chemotaxis toward L-malic acid”. Moreover, the “Ability to support bacterial growth as sole carbon source” value (“Ability to support bacterial growth” for short) in assay [5] is given as “able to efficiently sustain growth”. Moreover, in assay [2], binding was characterised by a dissociation constant (Kd) of 224 ± 10 µM, the “Binding to PA2652-LBD in ITC (in words)” value was “detection of binding” and the “Binding in ITC” value is reported as “YES”. Besides, the Chemotactic response result in assay [3] was “Minor but statistically significant responses”. The Chemotactic response entry in assay [3] (listed as methylsuccinic acid) is “very minor responses”.
Take `C[C@H](CC(=O)O)C(=O)O` [D-methylsuccinic acid]: the “Binding to PA2652-LBD in ITC (in words)” value in assay [2] is reported as “no binding was observed”.
On to `C/C(=C/C(=O)O)C(=O)O` [citraconic acid], for which, in assay [4], the “Effect of antagonist on chemotaxis toward L-alanine” value is “did not significantly alter the chemotaxis” and the “Effect of antagonist on chemotaxis toward L-malic acid” value was “reduced the chemotaxis toward L-malic acid”. In addition, the Tm increases result in assay [1] is “hits”. The “Ability to support bacterial growth” value in assay [5] is on record as “could not be used as sole carbon source”. In addition, in assay [2], binding was characterised by a dissociation constant (Kd) of 210 ± 15 µM and the “Binding in ITC” value is listed as “YES”. In assay [3], the “Role of PA2652 ligand” value was “antagonists”; the Chemotactic response entry is “did not cause any chemotactic response and no”.
For `CC(O)(CC(=O)O)C(=O)O` (racemic) [D,L-citramalic acid], the Tm increases entry in assay [1] is listed as “hits”. For the same molecule, in assay [5], the “Ability to support bacterial growth” value was “able to efficiently sustain growth”. In addition, in assay [2], the Kd (usually the free concentration of one partner at which half of the binding sites on the other are occupied at equilibrium, for simple one-to-one binding) was determined as 61 ± 4 µM and the “Binding in ITC” value is recorded as “YES”. In addition, in assay [3], the “Concentration of maximum chemotactic response” value is 10 mM and the Chemotactic response result is “Significant responses; also recorded: significant chemotaxis”.
In the case of `C[C@](O)(CC(=O)O)C(=O)O` [L-citramalic acid], the “Role of PA2652 ligand” value in assay [3] is “chemoattractants”.
Take `C[C@@](O)(CC(=O)O)C(=O)O` [D-citramalic acid]: the “Binding to PA2652-LBD in ITC (in words)” value in assay [2] is “no binding was observed”.
For the molecule `O=C(O)[C@H](O)[C@@H](O)C(=O)O` [L-tartaric acid], the “Tm Shift” value in assay [1] is “No significant shift”. In addition, the “Binding to PA2652-LBD in ITC (in words)” value in assay [2] is reported as “No binding”; in assay [2] (listed as tartaric acid), “absence of binding”.
With `N[C@@H](CC(=O)O)C(=O)O` [L-Aspartic acid], in assay [1], the “Tm Shift” value was “No significant shift”. Besides, the “Binding to PA2652-LBD in ITC (in words)” value is reported as “No binding” in assay [2] (listed as L-aminosuccinic acid) and “absence of binding” in assay [2] (listed as aminosuccinic acid).
Regarding `O=C(O)C[C@@H](O)C(=O)O` [D-malic acid], in assay [1], the “Tm Shift” value is on record as “No significant shift” and the Tm increases entry was “did not cause significant increases”. In addition, the “Binding to PA2652-LBD in ITC (in words)” value in assay [2] is reported as “did not show binding; also recorded: No binding”.
For the molecule `O=C(O)CC(Br)C(=O)O` (racemic) [D,L-bromosuccinic acid], the Tm increases entry in assay [1] was “more than 2 °C”. The “Ability to support bacterial growth” value in assay [5] was “poorly supported bacterial growth”. In addition, in assay [2], the Kd worked out at 1240 ± 700 µM and the “Binding in ITC” value is on record as “YES”. In addition, in assay [3], the “Role of PA2652 ligand” value was “chemoattractants”, the “Concentration of maximum chemotactic response” value came to 10 mM and the Chemotactic response entry is given as “Significant responses; also recorded: significant chemotaxis”.
`O=C(O)CCCC(=O)O` [Glutaric acid]: the “Tm Shift” value in assay [1] was “No significant shift”.
